Here are results for 19 compounds from patent US20250171413A1, “ANTIVIRAL INDOLINYL COMPOUNDS AND USES THEREOF” (Gilead Sciences, Inc., priority 2023, published 2025).

For orientation: EC50 means the midpoint of the concentration-response curve.

Read-outs that look alike come from different tables or passages of the source.

In this assay the test system is HSV-2 virus (MS strain). Briefly: HSV-2 Cellomics Assay (immunofluorescence of HSV protein gD). The format is cell-based. The following applies: Human alphaherpesvirus 2, HSV-2 (MS strain, MOI 0.06) infected ARPE-19 cells, 16 hours. How it is done: Compounds were tested for their ability to inhibit HSV-2 replication by monitoring the expression of the HSV protein gD using a high-throughput immunofluorescence-based assay. 10-dose, 3-fold serial dilutions of compounds were prepared at starting concentrations of 0.2 or 2 mM in 100% DMSO. 250 nl of compounds were spotted in quadruplicates onto black collagen-coated 384-well microplates with clear bottom (Greiner cat #781956) using a Labcyte ECHO acoustic dispenser. The final starting concentration in the assay was either […]. DMSO (no compound) and pritelivir were included on each microplate as negative and positive controls, respectively.
ARPE-19 cells (ATCC cat #CRL-2302) were maintained DMEM/F-12 Glutamax medium (Thermo Fisher Scientific cat #10565018) supplemented with 10% FBS (Corning cat #35-011-CV) and 1% Penicillin-Streptomycin (cat #30-002-CI). Prior to confluence, cells were transferred to a centrifuge tube and spun for 5 minutes at 1000 rpm. Cells were resuspended in assay medium (DMEM/F-12 Glutamax, 2% FBS, 1% Penicillin-Streptomycin) and counted. Cell density was adjusted to 150,000 cells/ml and infected with HSV-2 virus (MS strain, ATCC cat #VR-540) at a MOI of 0.06 in a 50 ml conical tube for 1 hour under constant rocking. Cells were then spun for 5 minutes at 1000 rpm and the media replaced with assay medium containing either 2% FBS or 10% human serum (EMD Millipore cat #S1-100ML). 50 μl of the infection suspension were added into microplate wells that were pre-spotted with compounds (7,500 cells per well). Plates were incubated for 16 hours at 37° C.
Cell culture medium was aspirated using a Biomek Fx and 50 μl of a paraformaldehyde solution (Electron Microscopy Sciences cat #15712-5) diluted to 4% in DPBS (Corning cat #21-031-CM) were added per well. After a 30-minute incubation at room temperature, plates were washed 4 times with 100 μl/well of PBS using a Biotek plate washer. A 1:500 solution of primary antibody (anti-HSV gD, Virusys cat #P1103) was prepared in permeabilization buffer (Invitrogen cat #00-8333-56) and 50 μl were added into wells. After a 1-hour incubation at room temperature, 50 μl of a 1:1000 solution of secondary antibody (Alexa Fluor 488 goat anti-mouse, Thermo Fisher Scientific cat #A11001) and DAPI (Thermo Fisher Scientific cat #62248) in permeabilization buffer were added into wells and plates were incubated in the dark at room temperature for 1 hour. Plates were washed 4 times again and 50 μl of DPBS were added to all wells prior to sealing the plates with a black adhesive seal. Fluorescence was measured on a Cellomics plate reader.
Data analysis was carried out using the Thermo Scientific HCS Studio software. Briefly, cells were identified using the DAPI nuclear stain and thresholds were set to filter cells out based on shape and size. A second threshold based on green fluorescence intensity (detection of HSV-2 gD) was set to identify HSV-2 infected cells. Data was reported as the average fluorescence intensity of HSV-2 infected cells. EC50 values were defined as the compound concentration that caused a 50% decrease in the average fluorescence intensity and was calculated using a sigmoidal dose-response model to generate curve fits.

Where [1] appears, read: assay medium containing 2% FBS, read-out: EC50-HSV2-FBS.
[2] abbreviates: assay medium containing 10% human serum, read-out: EC50-HSV2-10% Human Serum.

Turning to `CC[S@@](=N)(=O)c1cc2c(cc1F)CCN2C(=O)[C@@H]1Cc2ccc(-c3ccccn3)cc2C1` [Example 2, (R)-ethyl(5-fluoro-1-((R)-5-(pyridin-2-yl)-2,3-dihydro-1H-indene-2-carbonyl)indolin-6-yl)(imino)-λ^6-sulfanone], the EC50 by setting is: under setting [1], 18 nM; under setting [2], 71 nM.

As to `CC[S@](=N)(=O)c1cc2c(cc1F)CCN2C(=O)[C@@H]1Cc2ccc(-c3ccccn3)cc2C1` [Example 3, (S)-ethyl(5-fluoro-1-((R)-5-(pyridin-2-yl)-2,3-dihydro-1H-indene-2-carbonyl)indolin-6-yl)(imino)-λ^6-sulfanone], the concentration for a half-maximal effect (EC50) was found to be 73 nM under setting [1] and 258 nM under setting [2].

As for `CC[S@](=N)(=O)c1cc2c(cc1F)CCN2C(=O)[C@H]1Cc2cc(-c3ccccn3)ccc2O1` [Example 5, (S)-ethyl(5-fluoro-1-((R)-5-(pyridin-2-yl)-2,3-dihydrobenzofuran-2-carbonyl)indolin-6-yl)(imino)-λ^6-sulfanone], the EC50 by setting is: under setting [1], 178 nM; under setting [2], 474 nM.

On to `CC[S@@](=N)(=O)c1cc2c(cc1F)CCN2C(=O)[C@H]1Cc2cc(-c3ccccn3)ccc2O1` [Example 6, (R)-ethyl(5-fluoro-1-((R)-5-(pyridin-2-yl)-2,3-dihydrobenzofuran-2-carbonyl)indolin-6-yl)(imino)-λ^6-sulfanone], for which the EC50 under setting [1] was 40 nM and the concentration giving a half-maximal response (EC50) under setting [2] came to 81 nM.

On to `CCC[S@@](=N)(=O)c1cc2c(cc1F)CCN2C(=O)[C@@H]1Cc2ccc(-c3ccccn3)cc2C1` [Example 8, (R)-(5-fluoro-1-((R)-5-(pyridin-2-yl)-2,3-dihydro-1H-indene-2-carbonyl)indolin-6-yl)(imino)(propyl)-λ^6-sulfanone], for which the EC50 is, setting by setting: under setting [1], 16 nM; under setting [2], 77 nM.

`CCC[S@](=N)(=O)c1cc2c(cc1F)CCN2C(=O)[C@@H]1Cc2ccc(-c3ccccn3)cc2C1` [Example 9, (S)-(5-fluoro-1-((R)-5-(pyridin-2-yl)-2,3-dihydro-1H-indene-2-carbonyl)indolin-6-yl)(imino)(propyl)-λ^6-sulfanone]: the EC50 reads like this: under setting [1], 52 nM; under setting [2], 218 nM.

Regarding `CCC[S@](=N)(=O)c1cc2c(cc1F)CCN2C(=O)[C@H]1Cc2cc(-c3ccccn3)ccc2O1` [Example 11, (S)-(5-fluoro-1-((R)-5-(pyridin-2-yl)-2,3-dihydrobenzofuran-2-carbonyl)indolin-6-yl)(imino)(propyl)-λ^6-sulfanone], the 50% effective concentration (EC50) by setting is: under setting [1], 124 nM; under setting [2], 406 nM.

Consider `CCC[S@@](=N)(=O)c1cc2c(cc1F)CCN2C(=O)[C@H]1Cc2cc(-c3ccccn3)ccc2O1` [Example 12, (R)-(5-fluoro-1-((R)-5-(pyridin-2-yl)-2,3-dihydrobenzofuran-2-carbonyl)indolin-6-yl)(imino)(propyl)-λ^6-sulfanone], for which the EC50 is 35 nM under setting [1] and 98 nM under setting [2].

Regarding `COCCS(=N)(=O)c1cc2c(cc1F)CCN2C(=O)[C@@H]1Cc2ccc(-c3ccccn3)cc2C1` (stereo partly drawn) [Example 13, (5-fluoro-1-((R)-5-(pyridin-2-yl)-2,3-dihydro-1H-indene-2-carbonyl)indolin-6-yl)(imino)(2-methoxyethyl)-16-sulfanone], the EC50 came out at 31 nM under setting [1] and 55 nM under setting [2].

As for `COCC[S@@](=N)(=O)c1cc2c(cc1F)CCN2C(=O)[C@@H]1Cc2ccc(-c3ccccn3)cc2C1` [Example 14, (R)-(5-fluoro-1-((R)-5-(pyridin-2-yl)-2,3-dihydro-1H-indene-2-carbonyl)indolin-6-yl)(imino)(2-methoxyethyl)-λ^6-sulfanone], the EC50 is, setting by setting: under setting [1], 25 nM; under setting [2], 54 nM.

Regarding `COCC[S@](=N)(=O)c1cc2c(cc1F)CCN2C(=O)[C@@H]1Cc2ccc(-c3ccccn3)cc2C1` [Example 15, (S)-(5-fluoro-1-((R)-5-(pyridin-2-yl)-2,3-dihydro-1H-indene-2-carbonyl)indolin-6-yl)(imino)(2-methoxyethyl)-λ6-sulfanone], the concentration giving a half-maximal response (EC50) under setting [1] was 42 nM and the half-maximal effective concentration (EC50) under setting [2] turned out to be 87 nM.

Regarding `COCC[S@@](=N)(=O)c1cc2c(cc1F)CCN2C(=O)[C@H]1Cc2cc(-c3ccccn3)ccc2O1` [Example 17, (R)-(5-fluoro-1-((R)-5-(pyridin-2-yl)-2,3-dihydrobenzofuran-2-carbonyl)indolin-6-yl)(imino)(2-methoxyethyl)-λ^6-sulfanone], the EC50 under setting [1] was 39 nM and the EC50 under setting [2] was found to be 59 nM.

`COCC[S@](=N)(=O)c1cc2c(cc1F)CCN2C(=O)[C@H]1Cc2cc(-c3ccccn3)ccc2O1` [Example 18, (S)-(5-fluoro-1-((R)-5-(pyridin-2-yl)-2,3-dihydrobenzofuran-2-carbonyl)indolin-6-yl)(imino)(2-methoxyethyl)-λ^6-sulfanone]: the half-maximal effective concentration (EC50) under setting [1] was 92 nM and the concentration for a half-maximal effect (EC50) under setting [2] was determined as 208 nM.

As to `N=S(=O)(c1cc2c(cc1F)CCN2C(=O)[C@@H]1Cc2ccc(-c3ccccn3)cc2C1)C1CC1` (stereo partly drawn) [Example 19, cyclopropyl(5-fluoro-1-((R)-5-(pyridin-2-yl)-2,3-dihydro-1H-indene-2-carbonyl)indolin-6-yl)(imino)-λ^6-sulfanone], the EC50 was 56 nM under setting [1] and 453 nM under setting [2].

Consider `N=[S@](=O)(c1cc2c(cc1F)CCN2C(=O)[C@@H]1Cc2ccc(-c3ccccn3)cc2C1)C1CC1` [Example 20, (R)-cyclopropyl(5-fluoro-1-((R)-5-(pyridin-2-yl)-2,3-dihydro-1H-indene-2-carbonyl)indolin-6-yl)(imino)-λ^6-sulfanone], for which the EC50 is, setting by setting: under setting [1], 33 nM; under setting [2], 248 nM.

For the compound `N=[S@@](=O)(c1cc2c(cc1F)CCN2C(=O)[C@@H]1Cc2ccc(-c3ccccn3)cc2C1)C1CC1` [Example 21, (S)-cyclopropyl(5-fluoro-1-((R)-5-(pyridin-2-yl)-2,3-dihydro-1H-indene-2-carbonyl)indolin-6-yl)(imino)-λ^6-sulfanone], the EC50 under setting [1] is 98 nM and the EC50 under setting [2] came out at 949 nM.

Take `CN=S(C)(=O)c1cc2c(cc1F)CCN2C(=O)[C@@H]1Cc2ccc(-c3ccccn3)cc2C1` (stereo partly drawn) [Example 22, (5-fluoro-1-((R)-5-(pyridin-2-yl)-2,3-dihydro-1H-indene-2-carbonyl)indolin-6-yl)(methyl)(methylimino)-l6-sulfanone]: the EC50 was 211 nM under setting [1] and 737 nM under setting [2].

On to `CN=[S@](C)(=O)c1cc2c(cc1F)CCN2C(=O)[C@@H]1Cc2ccc(-c3ccccn3)cc2C1` [Example 23, (R)-(5-fluoro-1-((R)-5-(pyridin-2-yl)-2,3-dihydro-1H-indene-2-carbonyl)indolin-6-yl)(methyl)(methylimino)-λ^6-sulfanone], for which the EC50 runs as follows: under setting [1], 155 nM; under setting [2], 522 nM.

In the case of `CCS(=N)(=O)c1cc2c(cc1F)CC(C)N2C(=O)[C@@H]1Cc2ccc(-c3ccccn3)cc2C1` (stereo partly drawn) [Example 25, ethyl(5-fluoro-2-methyl-1-((R)-5-(pyridin-2-yl)-2,3-dihydro-1H-indene-2-carbonyl)indolin-6-yl)(imino)-λ^6-sulfanone], the EC50 under setting [1] is 72 nM and the EC50 under setting [2] was determined as 203 nM.
